Data: PMC8000760, “Potential Effect of Pseudevernia furfuracea (L.) Zopf Extract and Metabolite Physodic Acid on Tumour Microenvironment Modulation in MCF-10A Cells” (Biomolecules, 2021)

Columns and labels:
[1] = system: N-cadherin in TGF-β-stimulated MCF-10A cells; assay: N-cadherin expression, immunofluorescence staining; type: cell-based, human; conditions: IC10, 72 h, compared to TGF-β alone
Procedure: (§1) The MCF-10A and BJ-5ta cells were seeded and cultivated for 24 h in a complete medium. One day after seeding, 30 ng/mL of TGF-β was added and cultivated for 7 days (d). TGF-β was added to induce epithelial–mesenchymal transition in tested cell lines. Lichen extract P. furfuracea (L.) Zopf and its metabolite physodic acid were added at time 0 h and then incubated for 24, 48 and 72 h for various analyses, as described in Figure 1.
The MCF-10A cells at a density of 2 × 10^3/cm^2, plated on 22 mm^2 glass coverslips, were stimulated for 7 days with 30 ng/mL of TGF-β. […] After treatment, cells were washed with PBS, fixed with 4% paraformaldehyde (pH 7.2) for 10 min, permeabilised by 0.1% Triton X-100 (Sigma-Aldrich) for 10 min at RT and then washed three) times with PBS for 5 min. Glass coverslips were then incubated with Swine serum (1:30) for 30 min for blocking non-specific binding. Primary antibodies were diluted according to the manufacturer’s instructions (Table 2) and transferred to coverslips for 90 min. […] All coverslips were mounted in Vectashield (Cole-Parmer, Illinois, USA) and immunofluorescence pictures were taken with the same exposition settings by the Nikon Eclipse 90i fluorescence microscope (Nikon, Tokyo, Japan) equipped with filter cubes for FITC and DAPI. Images were then analysed using ImageJ (NIH) software.

[2] = system: N-cadherin in TGF-β-stimulated MCF-10A cells; assay: N-cadherin expression, flow cytometry; type: cell-based, human; conditions: IC10, 24, 48, 72 h, compared to TGF-β alone
Procedure: as §1
(§2) The MCF-10A cells (1 × 10^4/well) were seeded in Petri dishes and stimulated with […] TGF-β for 7 days. […] After detaching, using Trypsin/EDTA, cells were harvested and pelleted by centrifugation at 1200 rpm for 5 min. Pellet was re-suspended in PBS and divided for a particular analysis. Cells were stained prior to analyses with E-Cadherin Mouse mAb (Alexa Fluor 488 conjugate) or N-cadherin Rabbit mAb (Alexa Fluor 647 conjugate) (Cell Signalling) for 15 min at RT in the dark. For the cell cycle analyses, cells were re-suspended in staining solution (final concentration 0.1% Triton X-100, 0.5 mg/mL ribonuclease A and 0.025 mg/mL propidium iodide (PI)), and incubated in the dark at RT for 30 min. All samples were analysed using a FACS Calibur flow cytometer (Becton Dickinson, San Jose, CA, USA). The IgG isotype control checking was performed for every used antibody.

MCF-10A cells = assay: Flow cytometry cell cycle phase distribution; type: cell-based, human
Procedure: as §1, §2

E-cadherin in BJ-5ta = assay: Western blot of E-cadherin in TGF-β-stimulated fibroblasts; type: cell-based; conditions: TGF-β-stimulated BJ-5ta, 48 and 72 h
Procedure: as §1
(§3) Proteins isolated from MCF-10A and BJ-5ta cell lysates were determined by the Pierce® BCA Protein Assay Kit (Thermo Scientific, Rockford, IL, United States), using bovine serum albumin (BSA) as the standard, and measured by an automated Cytation™ 3 Cell Imaging Multi-Mode Reader (Biotek) at a wavelength of 570 nm. Proteins were separated on SDS-PAA gel (12%) at 100 V for 2 h and then transferred to a polyvinylidene difluoride (PVDF) membrane using the iBlot dry blotting system (Thermo Scientific, Rockford, IL, United States). […] After incubation, the membrane was again washed in TBS-Tween (3 × 5 min), and the expression of the protein was detected using a chemiluminescent ECL substrate (Thermo Fisher Scientific) and MF-ChemiBIS 2.0 Imaging System (DNR BIO-Imaging Systems, Jerusalem, Israel). The detected band was then analysed densitometrically using the Image Studio Lite software (LI-COR Biosciences, Lincoln, NE, USA). […]

[3] = system: fibronectin in TGF-β-stimulated MCF-10A cells; assay: Fibronectin expression, Western blot; type: cell-based, human; conditions: IC10 and IC50, dose-dependent manner
Procedure: as §1, §3

BJ-5ta = assay: BrdU cell proliferation assay; type: cell-based; conditions: 72 h
Procedure: The MCF-10A (5 × 10^3/well), BJ-5ta (5 × 10^3/well) and HUVEC cells (4 × 10^3/well) were plated in a 96-well plate in 80 μL suitable medium. HUVECs were seeded onto a gelatine-coated plate. After 24 h, cells were treated with the range of concentration 10–100 μg/mL for 72 h (MCF-10A, BJ-5ta), or in the presence or absence of 25 ng/mL of VEGF for 48 h (HUVECs). After 48 h (MCF-10A, BJ-5ta) or 24 h (HUVECs), BrdU labelling solution was added into cells and incubated for another 24 h at 37 °C, followed by fixation and incubation with anti-BrdU peroxidase conjugate solution for an additional 1.5 h at room temperature (RT). Then, cells were washed with washing buffer PBS and incubated with substrate solution TMB for 5 to 30 min according to colour intensity. Finally, we added stop solution (1 M H2SO4) and incorporated BrdU was detected with an automated CytationTM 3 Cell Imaging Multi-Mode Reader at 450 nm (reference wavelength: 690 nm). Three independent experiments were performed at different intervals.

[4] = system: E-cadherin in TGF-β-stimulated MCF-10A cells; assay: E-cadherin expression (Western blot, flow cytometry, immunofluorescence); type: cell-based, human; conditions: TGF-β-stimulated groups
Procedure: as §1
The MCF-10A cells (1 × 10^4/well) were seeded in Petri dishes and stimulated with […] TGF-β for 7 days. […] After detaching, using Trypsin/EDTA, cells were harvested and pelleted by centrifugation at 1200 rpm for 5 min. […] All samples were analysed using a FACS Calibur flow cytometer (Becton Dickinson, San Jose, CA, USA). […]
Proteins isolated from MCF-10A and BJ-5ta cell lysates were determined by the Pierce® BCA Protein Assay Kit (Thermo Scientific, Rockford, IL, United States), using bovine serum albumin (BSA) as the standard, and measured by an automated Cytation™ 3 Cell Imaging Multi-Mode Reader (Biotek) at a wavelength of 570 nm. […] After incubation, the membrane was again washed in TBS-Tween (3 × 5 min), and the expression of the protein was detected using a chemiluminescent ECL substrate (Thermo Fisher Scientific) and MF-ChemiBIS 2.0 Imaging System (DNR BIO-Imaging Systems, Jerusalem, Israel). […]

[5] = 24 h, IC10, in the presence of 30 ng/mL TGF-β
[6] = 24 h, treatment alone (IC10 of PSE/Phy, or TGF-β 30 ng/mL)
[7] = 48 h, IC10, in the presence of 30 ng/mL TGF-β
[8] = 48 h, treatment alone (IC10 of PSE/Phy, or TGF-β 30 ng/mL)
[9] = 72 h, IC10, in the presence of 30 ng/mL TGF-β
[10] = 72 h, treatment alone (IC10 of PSE/Phy, or TGF-β 30 ng/mL)

## CCCCCC(=O)Cc1cc(O)cc2c1C(=O)Oc1cc(O)c(C(=O)O)c(CCCCC)c1O2 [Phy, physodic acid]
[1]
  N-cadherin expression, immunofluorescence: significant decrease
[2]
  N-cadherin expression, flow cytometry: significantly reduced
MCF-10A cells; [5]
  G1 cell cycle phase distribution: 73.45 ± 0.69
  G2/M cell cycle phase distribution: 13.25 ± 2.08
  S cell cycle phase distribution: 12.20 ± 2.69
  Sub G0 cell cycle phase distribution: 1.10 ± 0.07
MCF-10A cells; [6]
  G1 cell cycle phase distribution: 73.25 ± 0.37
  G2/M cell cycle phase distribution: 13.85 ± 0.61
  S cell cycle phase distribution: 12.05 ± 0.86
  Sub G0 cell cycle phase distribution: 0.86 ± 0.12
MCF-10A cells; [7]
  G1 cell cycle phase distribution: 89.05 ± 1.18^Δ
  G2/M cell cycle phase distribution: 5.78 ± 1.16
  S cell cycle phase distribution: 3.36 ± 0.27
  Sub G0 cell cycle phase distribution: 1.82 ± 0.24
MCF-10A cells; [8]
  G1 cell cycle phase distribution: 88.15 ± 0.53
  G2/M cell cycle phase distribution: 5.06 ± 1.00
  S cell cycle phase distribution: 4.23 ± 0.48
  Sub G0 cell cycle phase distribution: 2.54 ± 0.04
MCF-10A cells; [9]
  G1 cell cycle phase distribution: 89.75 ± 0.86^Δ
  G2/M cell cycle phase distribution: 4.34 ± 1.27^Δ
  S cell cycle phase distribution: 3.14 ± 0.52
  Sub G0 cell cycle phase distribution: 2.77 ± 0.94
MCF-10A cells; [10]
  G1 cell cycle phase distribution: 88.50 ± 1.14
  G2/M cell cycle phase distribution: 3.99 ± 0.80
  S cell cycle phase distribution: 5.45 ± 2.26
  Sub G0 cell cycle phase distribution: 2.06 ± 0.35
MCF-10A cells; IC10, absence or presence of TGF-β 30 ng/mL, 24, 48 and 72 h
  cell cycle phase distribution versus control or TGF-β alone: no significant differences
E-cadherin in BJ-5ta
  expression of epithelial marker E-cadherin: did not significantly change
[3]
  levels of fibronectin, Western blot: downregulated
BJ-5ta
  IC10: 62.88 ± 0.90 µM
  IC50: 164 ± 4.5 µM
[4]
  restoration of E-cadherin: did not observe a significant restoration
